These results are taken from the Kinase Knowledgebase extract (Sharma et al. 2016).

Assay [1] deals with MAPK14 (human) (UniProt Q16539). The experiment in a line: Inhibition of TNF-alpha Production from LPS Stimulated PBMC.
For assay [2] the target is unchanged. Description: Inhibition of IL-1beta Production from LPS Stimulated PBMC.
Assay [3] shares this target. Description: Inhibition of TNF-alpha Release in LPS Stimulated Whole Blood Culture. Particulars: blood cells.
Assay [4] has the same target. The experiment in a line: Inhibition of IL-1 beta Release from LPS Stimulated Whole Blood Culture. Particulars: blood cells.
The target is the same in assay [5]. Description: Inhibition of MAPK14 Kinase Activity.

MAPK14 (human), sequence (Q16539 whole entry, looked up): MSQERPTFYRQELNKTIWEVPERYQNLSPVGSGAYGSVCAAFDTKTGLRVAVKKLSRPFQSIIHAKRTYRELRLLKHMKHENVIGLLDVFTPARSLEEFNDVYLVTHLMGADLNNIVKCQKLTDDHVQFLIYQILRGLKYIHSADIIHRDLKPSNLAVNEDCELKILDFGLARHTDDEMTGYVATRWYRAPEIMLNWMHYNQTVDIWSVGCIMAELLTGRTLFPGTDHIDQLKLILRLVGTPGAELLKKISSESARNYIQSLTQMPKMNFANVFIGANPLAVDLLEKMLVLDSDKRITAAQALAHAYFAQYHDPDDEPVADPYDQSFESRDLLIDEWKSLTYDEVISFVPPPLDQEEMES

For orientation: IC50 means the concentration needed to halve the response being measured. High values mean lower potency, low ones higher potency. In the case of `CC(Nc1cc(-c2[nH]c(SCc3ccccc3)nc2-c2ccc(F)cc2)ccn1)c1ccccc1` (centres undefined), the figures for the IC50 at MAPK14 (human) [1] and on MAPK14 (human) [2] were 2700 nM and 45 nM, respectively.

As for `C[S+]([O-])c1ccc(CSc2nc(-c3ccc(F)cc3)c(-c3ccnc(F)c3)[nH]2)cc1` (centres undefined), the IC50 on MAPK14 (human) [1] was determined as 6900 nM; on MAPK14 (human) [2], 2450 nM.

For the molecule `COc1cc(-c2[nH]c(SC)nc2-c2ccc(F)cc2)ccn1`, the values for the IC50 against MAPK14 (human) [1] and at MAPK14 (human) [2] were 1900 nM and 150 nM, respectively.

As to `CSc1nc(-c2ccc(F)cc2)c(-c2ccnc(NCCc3ccccc3)c2)[nH]1`, the concentration for half-maximal inhibition (IC50) on MAPK14 (human) [1] was 350 nM; at MAPK14 (human) [2], 31 nM; against MAPK14 (human) [3] it was 14.9 µM; against MAPK14 (human) [4] it was 17.1 µM.

As to `Fc1ccc(-c2nc(SCc3ccccc3)[nH]c2-c2ccnc(NCc3ccccc3)c2)cc1`, the IC50 against MAPK14 (human) [1] stood at 3200 nM; against MAPK14 (human) [2] it was 200 nM.

Consider `C[S+]([O-])c1ccc(CSc2nc(-c3ccc(F)cc3)c(-c3ccnc(NCc4ccccc4)c3)[nH]2)cc1` (centres undefined), for which the results for the IC50 on MAPK14 (human) [1] and against MAPK14 (human) [2] were 2000 nM and 470 nM, respectively.

As to `CSc1nc(-c2ccc(F)cc2)c(-c2ccnc(OC(C)C)c2)[nH]1`, the IC50 against MAPK14 (human) [1] was determined as 4600 nM; against MAPK14 (human) [2], 2700 nM; on MAPK14 (human) [3], 7.2 µM; against MAPK14 (human) [4], 2.2 µM.

In the case of `Fc1ccc(-c2nc(SCc3ccccc3)[nH]c2-c2ccnc(Cl)c2)cc1`, the half-inhibitory concentration (IC50) on MAPK14 (human) [1] was 60000 nM; at MAPK14 (human) [2] it was 1800 nM.

As for `CSc1nc(-c2ccc(F)cc2)c(-c2cc[nH]c(=O)c2)[nH]1`, the IC50 at MAPK14 (human) [1] was 3100 nM; at MAPK14 (human) [2], 500 nM.

For the molecule `CSc1nc(-c2ccc(F)cc2)c(-c2ccnc(F)c2)[nH]1`, the half-inhibitory concentration (IC50) was 2800 nM against MAPK14 (human) [1] and 300 nM against MAPK14 (human) [2].

Regarding `Fc1ccc(-c2nc(SCc3ccccc3)[nH]c2-c2ccnc(F)c2)cc1`, the IC50 on MAPK14 (human) [1] amounted to 40500 nM; at MAPK14 (human) [2], 2900 nM.

As to `CSc1nc(-c2ccc(F)cc2)c(-c2ccnc(NCc3ccc(C)cc3)c2)[nH]1`, the half-maximal inhibitory concentration (IC50) turned out to be 670 nM against MAPK14 (human) [1], 85 nM on MAPK14 (human) [2], 17.3 µM at MAPK14 (human) [3] and 22.3 µM on MAPK14 (human) [4].

Consider `CSc1nc(-c2ccc(F)cc2)c(-c2ccnc(Cl)c2)[nH]1`, for which the half-maximal inhibitory concentration (IC50) turned out to be 2200 nM against MAPK14 (human) [1] and 350 nM on MAPK14 (human) [2].

Take `C[S+]([O-])c1ccc(CSc2nc(-c3ccc(F)cc3)c(-c3ccnc(Cl)c3)[nH]2)cc1` (centres undefined): the IC50 against MAPK14 (human) [1] turned out to be 12000 nM; against MAPK14 (human) [2], 2100 nM.

Consider `CSc1nc(-c2ccc(F)cc2)c(-c2ccnc(Nc3ccccc3)c2)[nH]1`, for which the IC50 against MAPK14 (human) [1] is 340 nM; against MAPK14 (human) [2] it was 30 nM.

Regarding `COc1ccc(CNc2cc(-c3[nH]c(SCc4ccccc4)nc3-c3ccc(F)cc3)ccn2)cc1`, the IC50 amounted to 21000 nM on MAPK14 (human) [1] and 180 nM against MAPK14 (human) [2].

As to `COc1ccc(CNc2cc(-c3[nH]c(SC)nc3-c3ccc(F)cc3)ccn2)cc1`, the IC50 on MAPK14 (human) [1] was 640 nM; at MAPK14 (human) [2] it was 56 nM.

With `CSc1nc(-c2ccc(F)cc2)c(-c2ccnc(NCc3ccc(Cl)cc3)c2)[nH]1`, the IC50 was determined as 500 nM against MAPK14 (human) [1], 150 nM on MAPK14 (human) [2], 14.8 µM on MAPK14 (human) [3] and 13.3 µM against MAPK14 (human) [4].

Regarding `CSc1nc(-c2ccc(F)cc2)c(-c2ccnc(NCc3ccc(Cl)c(Cl)c3)c2)[nH]1`, the figures for the concentration for half-maximal inhibition (IC50) against MAPK14 (human) [1] and at MAPK14 (human) [2] were 720 nM and 230 nM, respectively.

As for `CSc1nc(-c2ccc(F)cc2)c(-c2ccnc(NCc3ccccc3)c2)[nH]1`, the results for the IC50 on MAPK14 (human) [1], against MAPK14 (human) [5] and on MAPK14 (human) [2] were 630 nM, 650 nM and 108 nM, respectively.

Turning to `CC(Nc1cc(-c2[nH]c(SCc3ccc([S+](C)[O-])cc3)nc2-c2ccc(F)cc2)ccn1)c1ccccc1` (centres undefined), the IC50 stood at 910 nM against MAPK14 (human) [1]; 270 nM on MAPK14 (human) [5]; 40 nM at MAPK14 (human) [2]; 10 µM against MAPK14 (human) [3]; 15.7 µM against MAPK14 (human) [4].
